SMILES strings stand for the structures. A value given as a limit tells only on which side of the number the result lay.

Consider `Cc1cccc(NC(=O)OCc2ccccn2)c1CNc1cccn2c(C)c(C)nc12`, for which the melting point fell in the range of 163 to 165 °C.

Compound `COc1ccc(C(=O)O)cc1NC(=O)C(CS)Cc1ccccc1` (stereo not given) returned a melting point of 188 to 192 °C.

In turn, `CCCCc1nc2c(N)nc3ccc(O)cc3c2n1CCCCNS(C)(=O)=O` registered a melting point of 223 to 227 °C.

In turn, `Nc1cc2c(cc1[N+](=O)[O-])CCO2` displayed a melting point of 140 to 142 °C.

In turn, `CN(C(=O)c1cn2cc(-c3ccc(Cl)cc3)ccc2n1)C(Cc1ccc(OCc2ccccc2)cc1)C(=O)O` (stereo not given) yielded a melting point of 216 °C.

For `O=C(Nc1ccc(C(F)(F)F)cc1)NC(Cc1ccc(C(F)(F)F)cc1)C(O)c1ccc(F)cc1` (stereo not given), the melting point lay within 160 to 161 °C.

As for `COC(=O)C1=C(NC(=O)NC2CCCCC2)CSC1`, the melting point fell in the range of 154 to 155 °C.

The compound `Cc1cc(C)c2c(c1C)OCC2c1ccc(Br)cc1` (stereo not given) yielded a melting point of 72 to 73 °C.

In the case of `CCCCNc1c(CO)cnc2c1cnn2CC`, the melting point is 60 to 72 °C.

In the case of `COc1ccc(C(O)CNCCc2ccc(OC)c(OC)c2Cl)cc1` (stereo not given), the melting point lay in the range of 117 to 120 °C.

In turn, `C1=C(COc2ccccc2)CCN(Cc2c[nH]c3ncccc23)C1` displayed a melting point of 161 to 163 °C.

Compound `CN1CCC(c2n[nH]c3ccccc23)CC1` displayed a melting point of 168 to 170 °C.

On to `O=C1c2ccc(Cl)cc2-n2c1nc1ccccc1c2=O`, for which the melting point lay within 301 to 303 °C.

Compound `CCC(O)P(=O)(OCc1ccccc1)OCc1ccccc1` (stereo not given) returned a melting point of 81 to 82 °C.

In the case of `COc1cc(F)ccc1CCn1ccn2c(=O)cc(-c3ccncn3)nc12`, the melting point is 196 to 198 °C.

`CCOC(=O)CNC1=NS(=O)(=O)c2ccccc21`: the melting point was in the range of 166 to 167 °C.

`O=C1O[C@@H](CO)[C@H]2CCc3cc(O)ccc3N12` (relative stereo) had a melting point of 250 °C.

In turn, `O=C(O)CN1C(=O)C(=Cc2cc(OCc3ccccc3)c(OCc3ccccc3)c(OCc3ccccc3)c2)SC1=S` displayed a melting point of 213 to 216 °C.

As for `Cc1ccc2ncc3nc(C(F)(F)F)n(C)c3c2c1`, the melting point lay within 220 to 223 °C.

`CC1(C)CCC(C)(C)c2cc(Oc3ccc(C=C(O)C(=O)O)cc3)ccc21`: the melting point was in the range of 207 to 210 °C.

`COc1ccc2c(c1)c(=O)c(CO)cn2C` yielded a melting point of 194 to 197 °C.

With `CC(C)c1nc(-c2cccc3c2OCO3)cc(-c2ccc(F)cc2)c1C=C(Br)Br`, the melting point lay within 129 to 131 °C.

Turning to `COc1c(C)c(C)c(OC)c(CC[C@](C)(O)CO)c1C`, the melting point lay within 82 to 84 °C.

Compound `CCC(=O)NC1=NN(c2ccccc2)C(c2ccc(C)cc2)C1` (stereo not given) showed a melting point of 124 to 125 °C.

`COC(=O)Nc1c(C#N)cnn1-c1ccc(Cl)c(Cl)c1Cl` yielded a melting point of 205 to 207 °C.

`O=C(CNc1c(C(=O)O)[nH]c2cc(Cl)ccc12)c1ccccc1O` showed a melting point of 198 to 200 °C.

The compound `CC(C)c1cccc(C(C)C)c1NC(=O)CN1CCN(CCSc2nc3ncccc3o2)CC1` returned a melting point of 153 to 154 °C.

The compound `CCCCOc1cc(C(=O)O)cc(S(N)(=O)=O)c1-c1ccccc1` displayed a melting point of 129 to 131 °C.

Compound `CC[C@@H]1c2onc(-c3ccc(Cl)cc3)c2CC[C@H]1C(=O)O` (relative stereo) had a melting point of 162 to 163 °C.

Compound `COC(=O)C(O)C(NC(=O)OCc1ccccc1)c1ccccc1` (stereo not given) registered a melting point of 120 to 121 °C.

Compound `Oc1ccc2c(-c3nc4ccc(O)cc4o3)cccc2c1` displayed a melting point of 273 to 275 °C.

Compound `CC(C)(C)OC(=O)NCCc1cccc(O)c1` yielded a melting point of 79 to 82 °C.

Regarding `Cc1c(CCc2ccc3nc(N)oc3c2)nc2cc(CCl)ccn12`, the melting point was over 300 °C.

Take `COc1cc(NS(C)(=O)=O)c(Oc2ccccc2)cc1C(C)=O`: the melting point was in the range of 108 to 110 °C.

Consider `COc1ccc(-c2ccc3c(c2)c2cc(Cl)cnc2n3S(=O)(=O)c2ccccc2)cc1`, for which the melting point is over 220 °C.

On to `OCc1sc(Cl)nc1-c1ccc(F)cc1`, for which the melting point fell in the range of 97 to 98.5 °C.

On to `Cc1cccc2c(=O)[nH]c(CCN3CC[C@H](O)C3)cc12`, for which the melting point fell in the range of 176 to 178 °C.

`O=C(NCc1cccnc1)c1ccc2n1Cc1ccccc1N(C(=O)c1ccc(-c3ccccc3CN3CCOCC3)cc1)C2` displayed a melting point of 191 to 194 °C.

The compound `O=Cc1cc(Br)cc(Cc2cccnc2)c1` displayed a melting point of 97 to 98 °C.

Turning to `O=c1ccc(-c2ccc(OC3CCN(C4CCCC4)CC3)nc2)n[nH]1`, the melting point lay in the range of 233 to 237 °C.

`COC(=O)c1ccc(Oc2c(C)n(CC(=O)O)c3ccc(F)cc23)cc1` showed a melting point of 195 to 196 °C.

Compound `O=c1[nH]c2ccccc2n1CCOC1CCCCO1` (stereo not given) gave a melting point of 115 °C.

`CCOC(=O)Cn1cccc1-c1nc(-c2ccc(OC)cc2)c(-c2ccc(OC)cc2)s1` showed a melting point of 132 to 136 °C.

`Cc1ccc(C2=CC(O)CN(C)C2)cc1` (stereo not given) yielded a melting point of 67 to 69 °C.

In turn, `CCS(=O)(=O)Nc1ccc(Cc2ccc(NC3=NCCN3)cc2)cc1` registered a melting point of 178 °C.

Compound `O=C(NCCO)c1cccc(-c2cccn3c(=O)n(Cc4cccc(C(F)(F)F)c4)nc23)c1` displayed a melting point of 148 to 150 °C.

Consider `Cc1c(C)c2c(c(C)c1NC(=O)CC(C)(C)C)C(c1ccc(C3OCCO3)cc1)CO2` (stereo not given), for which the melting point lay within 193 to 194 °C.

In turn, `Nc1ncc2cc(-c3c(Cl)cccc3Cl)c(=O)n(CCCc3ccccc3)c2n1` came in with a melting point of 161 to 163 °C.

Turning to `COC(COc1ccc(C(=O)C(C)(C)O)cc1)OC`, the melting point lay in the range of 52 to 53 °C.

In turn, `CN(C)C(=O)C1(c2cc(C#N)ccc2O)CCCC1` registered a melting point of 144 to 146 °C.

The compound `CC(C)C1(C)N=C(c2ncccc2C(=O)O)N(C#N)C1=O` (stereo not given) had a melting point of 150 to 153 °C.

`N#Cc1ccc(Oc2ccc(CC(=O)O)cc2)nc1` yielded a melting point of 148 to 151 °C.

Take `COC(=O)c1sc2ccccc2c1OCC(C)=O`: the melting point was in the range of 57 to 58 °C.

`CCCOc1ccc(S(=O)(=O)C(C)(C)C)cc1C(N)=O` returned a melting point of 215 to 218 °C.

Regarding `COc1cc2ccc(C(=O)O)cc2cc1OC`, the melting point lay in the range of 245 to 247 °C.

The compound `COc1cc(C(C)C)ccc1C1(NC(C)=O)C(=O)c2ccccc2C1=O` registered a melting point of 222 to 224 °C.

`C#CCOc1cc(-c2ncnc(C(F)F)c2Cl)c(F)cc1Cl` yielded a melting point of 93 to 95 °C.

`CC(C)(OCc1cc2cc(C(F)(F)F)ccc2n1S(=O)(=O)c1ccc2c(c1)CCO2)C(=O)O`: the melting point fell in the range of 92 to 94 °C.

`COc1ccc(CS[C@@H]2C[C@@H](CSCc3ccccc3)N(S(C)(=O)=O)C2)cc1` registered a melting point of 69 to 71 °C.

In turn, `O=C1CCc2c1sc1c2CCCC1` had a melting point of 43 to 44 °C.

Compound `Cc1ccc(C(=O)C=CN(C)C)s1` came in with a melting point of 118 to 121 °C.

The compound `CC1(c2ccccc2)SC(=Nc2ccc(Cl)cc2)N(Nc2ccccc2)C1=O` (stereo not given) had a melting point of 53 to 54 °C.

For the compound `Cc1ccc2c(c1)c1c(n2C(=O)c2ccccc2)CCCC1C(=O)O` (stereo not given), the melting point lay within 149 to 153 °C.

Compound `O=c1n(C(c2ccccc2)(c2ccccc2)c2ccccc2)nc2ccc(Cl)nn12` yielded a melting point of 246 to 247 °C.

As for `Nc1cc(N2CC(COCc3ccccc3)OC2=O)ccn1` (stereo not given), the melting point was in the range of 122 to 123 °C.

Values taken from a melting point compilation (Tetko et al.; mined from patent text by program, amines drawn as free bases though some values may be those of a salt).
